Experimental data reported in ChEMBL document CHEMBL1157539, “Thousands of chemical starting points for antimalarial lead identification” (Nature, 2010).

Test system: Plasmodium falciparum
Assay: GSK_TCMDC: Inhibition of Plasmodium falciparum 3D7 in whole erythrocytes, using parasite LDH activity as an index of growth.
Assay type: functional, organism-based

| SMILES | XC50 (Plasmodium falciparum, 3D7) | XC50 |
| --- | --- | --- |
| O=C(CCc1c[nH]cn1)Nc1ccc(-c2cccc(-c3nc4ccccc4[nH]3)c2)cc1 | 348 nM | – |
| CCNc1cc(C(=O)N[C@@H](Cc2ccccc2)[C@H](O)CNCCc2cccc3ccccc23)cc(N2CCCC2=O)c1 | 982 nM | – |
| CC[C@H]1CN2CC[C@@H]1C[C@H]2[C@H](O)c1ccnc2ccc(OC)cc12 | 225 nM | – |
| Cc1cccc2nc(-c3ccc(-c4cccc(CN5CCC(N)C5)c4)s3)[nH]c12 (configuration not stated) | 773 nM | – |
| CCCCOc1ccc(CNCCCCCCNCc2ccc(OCCCC)c3ccccc23)c2ccccc12 | 1130 nM | – |
| Nc1ncc(Cc2ccc3c(ccc4ccccc43)c2)c(N)n1 | 758 nM | – |
| CC(Cc1ccc(NC(=O)c2ccc(CC(C)NCc3ccc(Cl)cc3)cc2)cc1)NCCc1cccc(Cl)c1 (configuration not stated) | 450 nM | – |
| CCc1ccc(NC(=O)c2ccc(CN3CCCN(Cc4cccs4)CC3)cc2)cc1 | 827 nM | – |
| FC(F)(F)c1ccc2[nH]c(-c3ccc(-c4cccc(CNCCN5CCNCC5)c4)cc3)nc2c1 | 1030 nM | – |
| CCc1cc2c3c(N)nc(N)nc3ccc2n1C(CC)CC | 63.7 nM | – |
| CCOC(=O)c1cc(C(=O)NCCCCN2CCC(c3ccc4c(c3OC)CCCC4)CC2)ccc1-c1ccc(C(F)(F)F)cc1 | 707 nM | – |
| COc1cccc(C2(NC[C@@H](O)[C@H](Cc3ccccc3)NC(=O)c3ccccc3)CCCCC2)c1 | 729 nM | – |
| O=C(/C=C/c1ccc(Cl)c(Cl)c1)NC1CCC(CN2CCC(c3cc4ccccc4[nH]3)CC2)CC1 (configuration not stated) | 987 nM | – |
| Cc1cc(N2CCN(C)CC2)nc2ccc(NC(=O)c3cccc(N(C)C)c3)cc12 | 954 nM | – |
| CCOc1cc(Cc2cnc(N)nc2N)ccc1OC | 1250 nM | – |
| Cc1cc(N2CCCC2)nc(Nc2ccc(NC(=O)C(C)(C)C)cc2)n1 | 1070 nM | – |
| COc1ccc(-c2ccc(NC(=O)c3cccc(C#N)c3)cc2)cc1CN1CCC(O)CC1 | 821 nM | – |
| Cc1ccc(C)c(C=CC(=O)NC2CCC(CN3CCC(c4c[nH]c5ccccc45)CC3)CC2)c1 (configuration not stated) | 765 nM | 698 nM |
| CCc1cn2c3c(cc(C(=O)N[C@@H](Cc4cccc(Cl)c4)[C@H](O)CNC4CCOCC4)cc13)N(C)S(=O)(=O)CC2 | 44.2 nM | – |
| Cc1[nH]c(C)c(-c2ccc(OCc3ccc(OC(F)(F)F)cc3)nc2)c(=O)c1Br | 140 nM | – |
| O=C(NCc1cccc(C(F)(F)F)c1)[C@@H]1CCCN1C(=O)c1ccc(O)c(-c2ccc(Cl)c(Cl)c2)c1 | 787 nM | – |
| CCN(CCCN1CCCCC1)c1cc(C)nc(Nc2ccc(Cl)cc2)n1 | 385 nM | – |

| SMILES | XC50 (Plasmodium falciparum, 3D7) | XC50 |
| --- | --- | --- |
| CC[C@H](C)CNC(=O)c1cncc(-c2ccc(CNCC3CNCCCO3)cc2)c1 (some centres not stated) | 1020 nM | – |
| Fc1cccc(C=NN=c2cc[nH]c3ccc(C(F)(F)F)cc23)c1 | 733 nM | – |
| CCc1nc(N)nc(N)c1CCCOc1ccccc1Cl | 105 nM | – |
| CCN(CC)CCN(Cc1ccc(-c2ccc(C(F)(F)F)cc2)cc1)C(=O)Cn1c(CCc2cccc(F)c2F)nc(=O)c2cc(F)ccc21 | 826 nM | – |
| Cc1ccccc1Cn1ccc2c3c(N)nc(N)nc3ccc21 | 3.2 nM | – |
| Cc1cc(C)cc(OCC(O)CN(Cc2cc(Cl)cc(Cl)c2)C(=O)Nc2ccccc2Cl)c1 (configuration not stated) | 944 nM | – |
| CCCC(C)Nc1nc(C)cc(N[C@@H](CC(C)C)C(=O)NCc2cccc(F)c2)n1 (some centres not stated) | 1000 nM | – |
| O=C(/C=C/c1ccc(Cl)c(Cl)c1)NC1CCN(Cc2ccc(O)cc2)C1 (configuration not stated) | 952 nM | – |
| CCN1CCN(CCCNc2c3ccccc3nc3ccccc23)CC1 | 798 nM | – |
| CCC(CC(C)C(=O)O)=C(c1ccccc1)c1ccccc1 (configuration not stated) | 224 nM | – |
| CC(C)(C)C(=O)Oc1ccc(CC2NCCc3cc(OC(=O)C(C)(C)C)c(OC(=O)C(C)(C)C)cc32)cc1OC(=O)C(C)(C)C (configuration not stated) | 419 nM | – |
| O=C(Nc1ccc(OC2CCN(Cc3ccsc3)CC2)c(Cl)c1)c1ccc(F)cc1 | 647 nM | – |
| OC(CNC1CCCCCCC1)c1ccc(Cl)c(Cl)c1 (configuration not stated) | 205 nM | – |
| Nc1nc(N)c2cc(S(=O)(=O)c3ccc4ccccc4c3)ccc2n1 | 36.8 nM | – |
| CCCCNCc1ccc(-c2nc(CN(CCCN3CCN(C)CC3)C(=O)Nc3cccc(Cl)c3)cs2)cc1 | 967 nM | – |
| CN(C)CCCN1C(=O)c2[nH]nc(-c3ccc(Cl)cc3O)c2C1c1ccc(Cl)cc1 (configuration not stated) | 758 nM | – |
| CCCCCCCCNCCCSCCCNCCCCCCCC | 1230 nM | – |
| O=C(Nc1ccccc1)c1ccc(N2CCC(COc3cccc(C(F)(F)F)c3)CC2)nc1 | 298 nM | – |
| N#Cc1cccc(NC(=O)C2=C(CCc3ccc4c(c3)OCO4)NC(=O)NC2c2cccc(C#N)c2)c1 (configuration not stated) | 834 nM | – |
| CN1CCC(C(=O)N(Cc2ccc(-c3ccc(CNCCc4ccccc4)cn3)cc2)C2Cc3ccccc3C2)CC1 | 1060 nM | – |
| COc1ccc(Nc2nccc(-c3ccc4c(-c5ccsc5)cnc(N)c4c3)n2)cc1 | 236 nM | – |
| O=C(/C=C/c1ccccc1Cl)Nc1ccc(Br)c(OCCN2CCN(CCN3CCCC3)CC2)c1 | 653 nM | – |

| SMILES | XC50 (Plasmodium falciparum, 3D7) | XC50 |
| --- | --- | --- |
| CCN1CCN(c2ccc(Nc3c4ccccc4nc4ccccc34)cc2)CC1 | 718 nM | – |
| CCOc1ccc(CNCCCCCCNCc2ccc(OCC)c3ccccc23)c2ccccc12 | 447 nM | – |
| CC(=O)Nc1ccc(C(=O)Nc2cccc(-c3ccc(-c4nc5ccccc5[nH]4)cc3)c2)cn1 | 206 nM | – |
| CCc1c(C)nc(-n2nc(C)cc2NC(=O)CC(c2ccccc2)c2ccccc2)[nH]c1=O | 652 nM | – |
| Cc1cccc2nc(-c3ccc(-c4ccc(CNCc5ccccc5)cc4)s3)[nH]c12 | 208 nM | – |
| NS(=O)(=O)c1cccc(Nc2nc(N[C@@H]3CCNC3)nc3cc[nH]c(=O)c23)c1 | 940 nM | – |
| COc1cc(NC(=O)/C=C/c2ccccc2OC(F)(F)F)cc(OCCN2CCCCC2)c1 | 190 nM | – |
| CN1CCCN(Cc2cccc(-c3ccc(NC(=O)c4ccc(Cl)cc4)cc3)c2)CC1 | 720 nM | – |
| Cc1nc(N)nc(N)c1-c1ccc2ccccc2c1 | 868 nM | – |
| CCC(C)NS(=O)(=O)c1ccc2nc(Nc3cccc(SC)c3)n(C(C)C(C)C)c2c1 (configuration not stated) | 503 nM | – |
| COc1cc(C(=O)NC2CC(C)(C)NC(C)(C)C2)ccc1-c1cc2cc(Cl)c(Cl)cc2[nH]1 | 724 nM | – |
| COc1ccc(C(=O)N[C@@H](CC(C)C)C(=O)NC2CC[C@@H](C)N(C(=O)Nc3ccc(Cl)cc3)CC2=O)cc1OCCN1CCOCC1 (some centres not stated) | 152 nM | – |
| O=c1sn(-c2csc3ccccc23)c2ccccc12 | 339 nM | – |
| CCOC(=O)N1CCN(CCCCNc2c3ccc(Cl)cc3nc3ccc(OC)cc23)CC1 | 121 nM | – |
| Cc1nn(CC(C)C)c2sc(C(=O)N3CCN(S(=O)(=O)c4ccc(C#N)cc4)CC3)cc12 | 739 nM | – |
| COc1ccc(CNCc2cccc(-c3cccc(-c4nc5cccc(C)c5[nH]4)c3)c2)cc1 | 134 nM | – |
| CCc1n[nH]c(C(=O)NC2CCN(CC3(c4ccc(OC)cc4)CCCCC3)CC2)c1C | 892 nM | – |
| Cc1cccc(C)c1C1CCN(CCCCNC(=O)c2cc3ccccc3[nH]2)CC1 | 892 nM | – |
| Cc1cccc2nc(-c3cccc(-c4ccc(NC(=O)C(C)CN5CCOCC5)cc4)c3)[nH]c12 (configuration not stated) | 689 nM | – |
| O=C(/C=C/c1ccc(Cl)c(Cl)c1)N1CCC(CCN2CCC(c3c[nH]c4ccccc34)CC2)CC1 | 602 nM | – |
| CN1CCC[C@H]1COc1ccc(CN2CC[C@H](NC(=O)c3ccc(Cl)c(Cl)c3)C2)c2ccccc12 | 946 nM | – |
| CCOc1cccc2nc(NCCCNCc3ccc(Cl)c(Cl)c3)cc(NCCCNCc3ccc(Cl)c(Cl)c3)c12 | 574 nM | – |

| SMILES | XC50 (Plasmodium falciparum, 3D7) | XC50 |
| --- | --- | --- |
| COc1ccc(Nc2nc(NC3CCN(C)CC3)cc(-c3ccc(OC)cc3)n2)cc1 | 545 nM | – |
| O=C(NC1CCC(CN2CCC(c3c[nH]c4ccccc34)CC2)CC1)c1cc(-c2ccccc2Cl)n(-c2cccc(Cl)c2)n1 (configuration not stated) | 851 nM | – |
| N#Cc1ccc(CN2CCC(Oc3ccc(NC(=O)c4ccsc4)cc3Cl)C2)cc1 (configuration not stated) | 674 nM | – |
| Cc1ccccc1C1CCN(C2CCC(NC(=O)/C=C/c3ccccc3C(F)(F)F)CC2)CC1 (configuration not stated) | 1410 nM | – |
| O=C(NC1CCN(Cc2ccccc2)CC1)c1cccc(Nc2nc(-c3ccccc3)cs2)c1 | 1030 nM | – |
| Cc1cc(N(C)C2CCN(CC3CCCCC3)C2)nc(Nc2ccc(Br)cc2)n1 (configuration not stated) | 703 nM | – |
| O=C(NC1CCCCN(Cc2ccccc2O)C1)c1ccc(Cl)c(Cl)c1 (configuration not stated) | 747 nM | – |
| CCC(C)(C)C1CCc2nc(N)nc(N)c2C1 (configuration not stated) | 6.38 nM | – |
| CC(C)(C)c1ccccc1SC1=C(O)CC2(CCNCC2)OC1=O | 884 nM | – |
| O=C(Nc1ccc(Cl)cc1)c1ccc(CN2CCCN(Cc3ccsc3)CC2)cc1 | 862 nM | – |
| COc1ccc(CNCCc2cccs2)cc1-c1ccc(OC)c(S(=O)(=O)NCCN2CCCC2)c1 | 1410 nM | – |
| CCCCSc1ccc(CNCCCCCCNCc2ccc(SCCCC)c3ccccc23)c2ccccc12 | 631 nM | – |
| O=C(CNC(=O)c1ccc(O)cc1)Nc1cccc(-c2cccc(-c3nc4cc(C(F)(F)F)ccc4[nH]3)c2)c1 | 1040 nM | – |
| CCCc1cc(NCC)nc(Nc2ccc(F)cc2)n1 | 1030 nM | – |
| CCC(C)c1cccc(C(C)CC)c1OCCCON1C(N)=NC(N)=NC1(C)C (configuration not stated) | 20 nM | – |
| O=C(c1cc(-c2ccccc2O)on1)N1CCN(C(c2ccccc2)c2ccccc2)CC1 | 335 nM | – |
| Cc1cc(=NN=Cc2ccc(F)cc2)c2cccc(C)c2[nH]1 | 779 nM | – |
| CC(C)(C)c1nn(-c2ccccc2)c2[nH]c(=O)c(CNCc3ccc4c(c3)OCO4)cc12 | 1050 nM | – |
| O=C(/C=C/c1ccc(Cl)cc1)NCCCCCN1CCCC(C(=O)Nc2cccc(Cl)c2)C1 (configuration not stated) | 208 nM | – |
| O=C(CC1NC(=O)c2ccccc21)Nc1ccc(-c2ccc(-c3nc4cc(C(F)(F)F)ccc4[nH]3)cc2)cc1 (configuration not stated) | 470 nM | – |
